Experimental data as given in patent US20090192137A1, “Dialysis method” (AstraZeneca AB, priority 1993, published 2009).

What was measured:
[1] = Pig study: clearance of iohexol to monitor filter clearance; assay type: in vivo; details: Swedish Land Race, plasma and dialysing solution, intravenous, 6000 mg, dialysis filter clearance, measured every half-hour, two experiments
Protocol: (§1) Before connection of the efferent and afferent blood lines, 20 mL (300 mg/mL) of iohexol (Omnipaque®, Nycomed AB, Lidingö, Sweden) was administered in the ear vein to monitor filter clearance. Two minutes before the start of dialysis, 0.15 μmol/kg of melagatran was given via the right femoral vein as a bolus.
Amounts of iohexol in plasma and dialysing solution were determined at the Laboratory of the Division of Nephrology (Sahlgren's University Hospital, Gothenberg, Sweden) using a Reanalyzer PRX 90 (Provalid AB Lund, Sweden).

[2] = Pig study: concentration of melagatran in plasma and dialysis outlet during dialysis; assay type: in vivo
Protocol: Two Swedish Land Race pigs weighing 59 and 57 kg respectively were used. Anaesthesia was induced using Ketaminol® (10 mg/kg, i.m. Veterinaria AG, Switzerland) and Dormicum® (1 to 2 mg/kg, i.m. Roche, Basel, Switzerland), followed by, after 20 minutes, Diprivan® ([…] i.v. Zeneca Limited, Macclesfield, Cheshire, United Kingdom), intubated and ventilated at 15 cycles/minute with air containing 2 to 3% Forene® (Abbott Scandinavia AB, Kista. Sweden) using a Servo Ventilator 900C (Siemens Elema, Solna, Sweden).
(§2) The anaesthetised pigs were subjected to bilateral ligation of renal arteries and veins using lateral flank approaches. The wounds were then closed and the animals were placed on their backs. Two catheters (Kimal, K41/3B/LL, Uxbridge, England) were inserted into the right femoral artery and vein for connection to the dialysis equipment. The artery catheter was used to provide blood to (efferent blood line), and the vein catheter to receive blood from (afferent blood line), the dialysis filter. One polyethylene catheter (Intramedic PE-200, Clay Adams, Parsippany, N.J., USA) was inserted into an artery (right saphenous in pig A and brachial in pig B) for blood pressure (MAP) recording (transducer Peter von Berg Medizintechnik GmbH, Kirchseeon/Eglharting, Germany) and for blood samples, pH and blood gas measurements.
(§3) Before the start of dialysis, the LunDia Pro 600 dialysis filter (Gambro, Lund, Sweden) was primed on both sides for 15 minutes with Biosol A201.5 glucose (Pharmalink, Solna, Sweden) dialysis concentrate diluted 1:35 using a Gambro AK-100 (Grambro. Lund, Sweden) haemodialysis equipment (see FIG. 5). The dialysis concentrate was supplemented with melagatran (35 μM; thus providing 1 μM after dilution). The flow rate was adjusted to 500 mL/min on the dialysing solution side and to 250 mL/min on the blood side of the membrane by separate pumps. Pressure was measured (transducer Peter von Berg Medizintechnik) on both sides of the dialysis membrane.
as §1
After connection of blood lines and two minutes after the administration of the melagatran bolus dose, dialysis was started and carried out for 3 hours. Then, the procedure was interrupted, the blood lines disconnected and the filter and blood lines washed by pumping saline instead of blood to check for the presence of macroscopic blood clots.
The amount of melagatran in plasma was quantified using liquid chromatographic and mass spectrometric methods (BA-285, AstraZeneca R&D, Mölndal, Sweden).

[3] = test system: anaesthetised pigs without kidney function; test: Pig study: prevention of coagulation and maintained filter function during haemodialysis; assay type: in vivo
Source text: The aim of this study was to test whether melagatran, given via the dialysing solution during dialysis could prevent coagulation and allow a maintained filter function throughout the session in acute experiments with anaesthetised pigs without kidney function.
To avoid very early thrombotic occlusion of blood lines and filters, which, if observed, would have prevented the drawing of meaningful conclusions regarding the utility of the method, an i.v. bolus dose of melagatran was given immediately before the start of extracorporeal blood circulation in these experiments.
as §2
as §3, with “membrane. […]” for “membrane.”

thrombin [4] = biological target: T1, thrombin (Sus scrofa, UniProt Q19AZ8); details: TAS equipment, during dialysis session
Protocol: For the determination of activated partial thromboplastin time (APTT), ecarin clotting time (ECT) and the amount of melagatran in plasma, twelve aliquots of blood were drawn at specific time points into plastic tubes containing one volume of 0.13 M sodium citrate. Plasma was recovered after immediate centrifugation (10,000 g for 5 minutes) and stored at −20° C. prior to analysis. For the determination of the amount of iohexol in plasma, blood was drawn in heparinized tubes, centrifuged is (10,000 g for 5 minutes) and stored at −20° C. prior to analysis.
ECT was determined in 30 μL citrate plasma using a TAS device (Thrombolytic Assessment System, Cardiovascular Diagnostics Inc., Raleigh, N.C.) and appropriate solid reagent test cards, as recommended.

thrombin [5] = biological target: T1, thrombin; details: during dialysis session
Protocol: For the determination of activated partial thromboplastin time (APTT), ecarin clotting time (ECT) and the amount of melagatran in plasma, twelve aliquots of blood were drawn at specific time points into plastic tubes containing one volume of 0.13 M sodium citrate. Plasma was recovered after immediate centrifugation (10,000 g for 5 minutes) and stored at −20° C. prior to analysis.
APTT was determined using a KC10 A micro coagulometer (Amelung, Lemago, Germany). 25 μL of citrate plasma was incubated with 25 μL of PTT-Automate reagent (Diagnostica Stago, Asnieres, France) for 3 minutes. Coagulation was started using 25 μL of 0.025 M CaCl2 (Diagnostica Stago, Asniéres. France) and the time taken to the start of coagulation was measured.

| clearance [1] | concentration at 2 min ([2]; Swedish Land Race, pig, plasma, iv, 0.15 μmol/kg, start of dialysis, 2 minutes after i.v. bolus dose, both pigs, read-out: concentration of melagatran in plasma (efferent blood)) | time to equilibration ([2]; acutely anuric pig) | concentration of melagatran in the dialysis outlet, higher than on the blood side ([2]; except the very first sample at the start of dialysis) | concentration of melagatran in plasma, level-off ([2]; over the first ˜0 minutes of dialysis, then quite constant, dialysing solution 1 μM expected) | SMILES | macroscopic thrombi in filters and tubing after dialysis ([3]; 3 hour dialysis, both pigs, washed with saline over 15 minutes) | filter function ([3]; judged from iohexol clearance, 3 hours of dialysis) | pressure in the efferent blood-line ([3]; one pig, 3 hour dialysis, stable) | ecarin clotting times (ECT), relation to drug concentration in plasma (thrombin [4]) | APTT times, relation to melagatran concentration (thrombin [5]) |
| --- | --- | --- | --- | --- | --- | --- | --- | --- | --- | --- |
| ~150 mL/min | – | – | – | – | CC(=O)N(CC(O)CO)c1c(I)c(C(=O)NCC(O)CO)c(I)c(C(=O)NCC(O)CO)c1I (stereo not shown) [iohexol] | – | – | – | – | – |
| – | 900 to 1000 nM | within one hour | about 0.2 μM | about 0.25 μM | N=C(N)c1ccc(CNC(=O)[C@@H]2CCN2C(=O)[C@H](NCC(=O)O)C2CCCCC2)cc1 [melagatran, HOOC—CH2—(R)Cgl-Aze-Pab-H] | macroscopic thrombi had not been formed | filter function was maintained over the full 3 hours of dialysis | about 275 mm Hg | closely reflected drug concentrations in plasma | proportional to the logarithm of melagatran concentration |
